The values below come from the METLIN SMRT retention time set (Domingo-Almenara et al. 2019).

Molecules are shown by their SMILES.

The nature of the series: gradient 5% acetonitrile 3 min, to 50% in 2 min, to 85% in 15 min, held 3 min, 100 µL/min. The following applies: column: Zorbax Extend-C18 2.1 x 50 mm; eluents: water / acetonitrile, 0.1% formic acid. An outline of the steps: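 Data were gathered over 3 months by HPLC coupled to a quadrupole time-of-flight mass spectrometer, operated in positive and negative ionization mode. Mixtures of ~100 pure standards ran on a Zorbax Extend-C18 column (2.1 × 50 mm, 1.8 μm) at 100 μL/min, with water and acetonitrile each containing 0.1% formic acid and dead and dwell volumes of 40 μL and 900 μL. Retention time was read from adduct peaks picked by computer and checked manually.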
As to `C[C@H]1CN(S(=O)(=O)c2ccccc2F)C[C@@H]1c1nc(-c2ccncc2)no1`, the RP-LC retention time came out at 884 s.

In the case of `COc1ccc(-c2nc3n(n2)C2(CCCCC2)[C@@H]2CCCC[C@@H]2N3C(=O)C2CC2)cc1`, the RP-LC retention time was 682 s.

Compound `CCN1CCN(c2cc(C)c3cc(NC(=S)NCCC(C)C)ccc3n2)CC1` returned an RP-LC retention time of 588 s.

The compound `CC1CCN(CCNC(=O)c2nc(CCS(=O)(=O)c3ccccc3)no2)CC1` registered an RP-LC retention time of 635 s.

As to `COCCCNC(=O)C1CCCN(S(=O)(=O)c2ccc(OC)c(C)c2)C1` (centres undefined), the RP-LC retention time was 768 s.

As to `CCC(C(=O)NCCN1CCCC1)n1c2ccccc2c2cnn(C)c(=O)c21` (centres undefined), the RP-LC retention time came to 632 s.

`COc1cc(CNC(=O)c2nnc(-c3ccc(S(=O)(=O)N(C)C)cc3)o2)cc(OC)c1` gave an RP-LC retention time of 846 s.

`CCN(CC)C(=O)c1ccc(-c2nc3cc(NS(=O)(=O)c4ccc(F)c(C)c4)ccc3n2C)cc1` yielded an RP-LC retention time of 722 s.

With `CCSc1nnc(NC(=O)CSc2nccn2-c2ccc(OC)cc2OC)s1`, the RP-LC retention time came to 682 s.

As for `Cc1ccc(CN2CCC(CNC(=O)C3CCCN(c4cc(=O)n(C)c(=O)n4C)C3)CC2)cc1` (centres undefined), the RP-LC retention time came to 602 s.

`CCOc1ccc(NC(=O)c2c(NC(=O)c3ccncc3)sc3c2CCC3)cc1` had an RP-LC retention time of 1270 s.

As to `Cc1nnc(CNC(=O)C(=O)Nc2ccon2)o1`, the RP-LC retention time turned out to be 534 s.

In turn, `O=C(Cn1c2c(c(=O)n(C3CCCCC3)c1=O)CCC2)NCc1ccco1` had an RP-LC retention time of 764 s.

Compound `COc1ccc(-c2noc(C3CCCN3C(=O)c3c(OC)cccc3OC)n2)cc1` (centres undefined) displayed an RP-LC retention time of 960 s.

`Cc1ccc(CNC(=O)c2ncn3c2C(=O)N(C2CC2)C(C)(C(=O)NCc2ccc(C)cc2)C3)cc1` (centres undefined) came in with an RP-LC retention time of 832 s.

Compound `Cn1nc(Br)nc1Sc1ccccc1NC(=O)C1CC1` showed an RP-LC retention time of 763 s.

Regarding `CC(C)OCCCNC(=O)Cn1nc2c(cc1=O)CCCCC2`, the RP-LC retention time was found to be 698 s.

In the case of `COc1ccc(-c2nc3n(c2C(=O)Nc2nc(-c4ccc(C)cc4)cs2)CCS3(=O)=O)cc1`, the RP-LC retention time came out at 1060 s.

Take `Cn1c(=O)n([C@H]2CCCN(S(=O)(=O)c3cccc4nsnc34)C2)c2ncccc21`: the RP-LC retention time amounted to 822 s.

On to `Cc1cccc(Oc2cc(N3CCC(C(=O)Nc4cccc(C(C)C)c4)CC3)ncn2)c1C`, for which the RP-LC retention time amounted to 1200 s.

Take `CC(C)Cn1c(=O)c(C(=O)NC2CCN(Cc3ccccc3)CC2)nc2cccnc21`: the RP-LC retention time is 670 s.

In turn, `CCc1nc(-c2csc(S(=O)(=O)N3CCC(C(=O)NCc4ccc(F)cc4)CC3)c2)no1` registered an RP-LC retention time of 935 s.

The compound `O=c1c2cc(-c3ccccc3)nn2ccn1CC(O)c1ccccc1` (centres undefined) showed an RP-LC retention time of 846 s.

As for `Cc1ccn2c(Nc3ccccc3C)c(-c3cccc(Cl)c3)nc2c1`, the RP-LC retention time was 890 s.

Turning to `CC(C)n1cnc2cc(CNC(=O)c3nn(C)c4ccccc34)ccc21`, the RP-LC retention time is 629 s.

`Cc1ccc2nc(CNC(=O)C3CCN(S(=O)(=O)c4ccc5c(c4)sc(=O)n5C)CC3)[nH]c2c1` showed an RP-LC retention time of 636 s.

Consider `CC(=O)c1ccc(NC(=O)Cn2nc3c4cc(-c5ccc(Cl)cc5)nn4ccn3c2=O)cc1`, for which the RP-LC retention time worked out at 894 s.

For the compound `Cc1ccc(OCC(=O)NCC2(C)CCOCC2)cc1`, the RP-LC retention time amounted to 784 s.

The compound `Cc1ccc(-n2nc3c(N4CCN(C(=O)NCC5CCCO5)CC4)nnc(C)c3c2C)cc1` (centres undefined) registered an RP-LC retention time of 590 s.

As for `CCN1CCN(CCNC(=O)c2ccc3c(c2)NC(=O)C2CCCCN32)CC1` (centres undefined), the RP-LC retention time was found to be 574 s.

Compound `O=C(C1CCC1)N1CCC(Cc2nc(C3CC3)n[nH]2)CC1` showed an RP-LC retention time of 598 s.

For the compound `N#C/C(=C\c1ccc[nH]1)C(=O)c1ccccc1`, the RP-LC retention time worked out at 892 s.

In turn, `CCCN(CCC)CCNC(=O)C1CCCN(c2ncnc3c2nc2n3CCCCC2)C1` (centres undefined) gave an RP-LC retention time of 599 s.

The compound `O=C(NCc1ccccn1)C1CN(C(=O)c2c[nH]c3ccccc23)C1` came in with an RP-LC retention time of 541 s.

As for `Cc1nc2sc(C)c(C)n2c(=O)c1NC(=O)COc1ccc(Cl)cc1Cl`, the RP-LC retention time worked out at 827 s.

On to `Cn1ncc2c(N3CCCC3)nc(C(=O)NCc3cccs3)nc21`, for which the RP-LC retention time is 742 s.

With `O=C(Cc1cccnc1)N1CCC(c2nc(-c3ccncc3)no2)C1` (centres undefined), the RP-LC retention time came out at 548 s.

As to `Cc1ccc(C)c(NC(=O)NC2CCN(c3ccc(F)c(C)c3)C2=O)c1` (centres undefined), the RP-LC retention time is 891 s.

Compound `O=C(c1ccc(Br)o1)N1CCC2(CC1)OCCS2` had an RP-LC retention time of 771 s.

Turning to `CCCCc1nnc(NC(=O)C2CCN(C(=O)c3ccc(Cl)cc3)CC2)s1`, the RP-LC retention time is 852 s.

In turn, `CC(C)c1noc(-c2cccnc2N2CCCN(Cc3ccc(F)cc3Cl)CC2)n1` had an RP-LC retention time of 754 s.

Compound `O=C(NCCc1csc(C2CCCN(C(=O)C3CCCO3)C2)n1)C1CC1` (centres undefined) had an RP-LC retention time of 627 s.

`CC(C)C(=O)Nc1ccc2nc(N3CCN(c4cccc(Cl)c4)CC3)cc(C(=O)O)c2c1` yielded an RP-LC retention time of 883 s.

Compound `CC(C)n1c(=O)c(NCc2ccc(F)cc2)nc2ccncc21` displayed an RP-LC retention time of 669 s.

`O=C(NCc1ccc(C(F)(F)F)cc1)c1cnc(-c2ccccc2)nc1-c1ccncc1` yielded an RP-LC retention time of 935 s.

Regarding `CNC(=O)C1CCCN(C(=O)Nc2ccc(NC(=O)Nc3ccc(OC)cc3)cc2)C1` (centres undefined), the RP-LC retention time came to 633 s.

The compound `CCn1c(=O)c(N2CCN(C(=O)Nc3cc(F)ccc3F)CC2)nc2ccccc21` had an RP-LC retention time of 997 s.

In the case of `CCOc1ccccc1NC(=O)C1CCCN(c2nc3c(s2)c(C)nn3-c2ccccc2)C1` (centres undefined), the RP-LC retention time was 1300 s.

In the case of `O=C(NCc1nc2ccccc2c(=O)n1-c1ccc(F)cc1)Nc1ccc(Cl)c(C(F)(F)F)c1`, the RP-LC retention time was determined as 1040 s.

On to `Cc1nc(-c2ccccc2)cc2nn(CC(=O)NC3CCCCC3)c(=O)n12`, for which the RP-LC retention time was found to be 880 s.

`CN(CCc1noc(-c2ccccc2)n1)C(=O)Nc1ccccc1Cl` showed an RP-LC retention time of 943 s.

`Cc1cccc(S(=O)(=O)Nc2ccc3c(c2)CCC(=O)N3)c1` had an RP-LC retention time of 689 s.

On to `CCN1c2ccc(C)cc2C(=O)NC12CCN(C(=O)c1cccc(OC)c1)CC2`, for which the RP-LC retention time is 805 s.

As to `COc1ccc(C2CC(=O)N(c3ccc(C)c(F)c3)C(=O)C2)cc1`, the RP-LC retention time worked out at 954 s.

Take `COc1ccc(NC(=O)Cc2csc3nc(-c4ccccc4)cn23)cc1`: the RP-LC retention time came to 751 s.

In turn, `Cc1sc2ccn(C)c(=O)c2c1C(=O)NC1CCN(Cc2ccccc2)CC1` registered an RP-LC retention time of 1030 s.

As for `CC1CCN(CC2CCN(S(=O)(=O)c3cccc(Cl)c3)CC2)CC1`, the RP-LC retention time is 691 s.

Consider `CCN(C(=O)c1cc2c(=O)n(C)c(=O)n(C)c2s1)c1ccc(OC)cc1`, for which the RP-LC retention time is 801 s.

Regarding `N#Cc1ccccc1NC(=O)C(=O)NCC1CCN(C(=O)c2ccccc2F)CC1`, the RP-LC retention time was found to be 744 s.

Compound `Cc1c(C(=O)NCC(C)C)cnn1-c1cc(-c2nc(C(C)C)no2)ccn1` showed an RP-LC retention time of 1010 s.

As for `CCN1CCN(CCCNC(=O)C2Cn3cccc3C(=O)N2CC(C)C)CC1` (centres undefined), the RP-LC retention time amounted to 558 s.

`OC[C@@H]1CNC[C@H]1C1CCN(Cc2cccc(Cl)c2F)CC1`: the RP-LC retention time was 806 s.

`COc1cccc(CNC(=O)c2ccc3ncnc(N4CCCC4)c3c2)c1`: the RP-LC retention time is 621 s.

Regarding `COc1ccc(NC(=O)Cn2nc3cc(C)nc(Nc4ccc(C)c(C)c4)n3c2=O)cc1`, the RP-LC retention time came to 1090 s.

`Cc1cc(=O)n(CC(=O)NCc2ccccc2Cl)c(N2CCOCC2)n1` returned an RP-LC retention time of 662 s.

On to `CCCC(=O)N1CCC(C(=O)NCCc2cscn2)CC1`, for which the RP-LC retention time amounted to 596 s.

`COc1cccc(CNC(=O)CN2CCN(Cc3ccc(F)cc3)C2=O)c1OC` registered an RP-LC retention time of 772 s.

Compound `Cc1cc(C)cc(NC(=O)Cn2c(=O)nc(N3CCC(C)CC3)c3ccccc32)c1` gave an RP-LC retention time of 925 s.

Regarding `Cc1oc(-c2[nH]ncc2C(=O)N(C)C)cc1S(=O)(=O)NC1CC1`, the RP-LC retention time is 614 s.

`Cc1cc(=O)n(CC(=O)Nc2cccc(C)c2C)c(N2CCOCC2)n1`: the RP-LC retention time worked out at 673 s.

In turn, `CCNC(=O)c1sc(-c2ccc(C)cc2)nc1C` came in with an RP-LC retention time of 850 s.

For the compound `CC(C)(C)C(O)CCNC(=O)NCc1ccc(F)cc1` (centres undefined), the RP-LC retention time worked out at 705 s.

`Cc1ccc(-c2csc(-n3nc(C)c(CC(=O)N4CCCC4)c3C)n2)cc1` came in with an RP-LC retention time of 1090 s.

In turn, `O=C(Cn1nc2nc(Nc3ccc(F)cc3)ccn2c1=O)Nc1ccccc1F` yielded an RP-LC retention time of 754 s.

On to `CCN(C(=O)Cn1nc2cc(-c3ccccc3)nc(C)n2c1=O)c1cccc(C)c1`, for which the RP-LC retention time turned out to be 862 s.

In turn, `O=C(NCc1ccc(F)cc1Cl)C1CCCN(c2ncnc3c2oc2ccccc23)C1` (centres undefined) showed an RP-LC retention time of 802 s.

In turn, `COc1ccc(OC)c(NC(=O)COc2cc(C)nc(N3CCCC3)n2)c1` had an RP-LC retention time of 650 s.

Compound `CCCC(N[C@@H](C)C(=O)N1[C@H](C(=O)O)C[C@@H]2CCCC[C@@H]21)C(=O)OCC` (some centres undefined) came in with an RP-LC retention time of 703 s.

Turning to `O=S(=O)(CCc1noc(C2COc3ccccc3O2)n1)c1ccccc1` (centres undefined), the RP-LC retention time is 927 s.
